Patent US10568949B2, “Method of eliciting an anti-tumor immune response with controlled delivery of TLR agonists in porous polymerlc devices” (President and Fellows of Harvard College, priority 2008, dated 2020)

B1: Fms-related tyrosine kinase 3 ligand (protein, UniProt P49772 27-232, looked up)
Fms-related tyrosine kinase 3 …: GTPDCYFSHSPISSNFKVKFRELTDHLLKDYPVTVAVNLQDEKHCKALWSLFLAQRWIEQLKTVAGSKMQTLLEDVNTEIHFVTSCTFQPLPECLRFVQTNISHLLKDTCTQLLALKPCIGKACQNFSRCLEVQCQPDSSTLLPPRSPIALEATELPEPRPRQLLLLLLLLLPLTLVLLAAAWGLRWQRARRRGELHPGVPLPSHP
notes: recombinant murine cytokine (Peprotech) released from PLG matrices
B2: CCL20 (protein, UniProt O89093 28-97, looked up)
C-C motif chemokine 20: ASNYDCCLSYIQTPLPSRAIVGFTRQMADEACDINAIIFHTKKRKSVCADPKQNWVKRAVNLLSLRVKKM
notes: as for B1

How the values were obtained:
dendritic cells [1] = test: Example 7: DC recruitment and activation in matrices with GM-CSF and TLR agonists (FACS, day 7); type: in vivo, C57BL/6J mice; conditions: with GM-CSF
Excerpt: The cell suspensions were then poured through a 40 μm cell strainer to isolate cells from scaffold particles and the cells were pelleted and washed with cold PBS and counted using a Z2 coulter counter (Beckman Coulter). To assess, DC infiltration and activation, subsets of the total cell population isolated from PLG matrices were then stained with primary antibodies (BD Pharmingen, San Diego, Calif.) conjugated to fluorescent markers to allow for analysis by flow cytometry. APC-conjugated CD11c (dendritic cell marker), FITC-conjugated MHCII and PE-conjugated CD86 (B7, costimulatory molecule) stains were conducted for DC recruitment and activation analysis. To further delineate the presence of specific DC subsets, cells were also stained with APC-conjugated CD11c and PE-conjugated PDCA-1 (plasmacytoid DC marker) or APC-conjugated CD11c and PE-conjugated CD8 (CD8 DCs). To assess T-cell infiltration PE-Cy7 conjugated CD3 stains were performed in conjunction with APC-conjugated CD8a (CD8 T cells), and PE-conjugated FoxP3 (Treg) and analyzed with flow cytometry. Cells were gated according to single positive FITC, APC and PE stainings and using isotype controls. The percentage of cells staining positive for each surface antigen was recorded. To examine the ability of PLG matrices to recruit and activate dendritic cells in vivo, matrices delivering GM-CSF in combination with danger signals were implanted subcutaneously into the backs of C57BL/6J mice. The magnitude of DC infiltration and activation into the matrices was determined by FACS analysis of cell populations isolated from the polymeric material after 7 days.

IL-12p70 = test: Example 7: cytokine concentrations at implant site; type: in vivo, C57BL/6J mice; conditions: with GM-CSF
Description: To determine in vivo IL-12p70 concentration at the matrix implant site, adjacent tissue was excised and digested with tissue protein extraction reagent. After centrifugation, the concentrations of IL-12, in the supernatant were then analyzed with ELISA (R&D systems), according to the manufacturer's instructions.

B16-F10 melanoma cells [2] = test: Example 7: prophylactic vaccination, B16-F10 melanoma; type: in vivo, C57BL/6J mice; parameters: concentration or dose not given beside the values; conditions: B16-F10 tumor lysates and GM-CSF, with or without TLR agonist; challenge at day 14
B16-F10 tumors = test: Example 7: tumor infiltrating leukocyte (TIL) characterization; parameters: species or system C57BL/6J mice; conditions: mouse, in vivo
Description: On the indicated days, B16-F10 tumors were removed from mice, and digested in 1 mg/mL collagenase II (250 U/ml) (Worthington, Lakewood, N.J.) and 0.1 mg/mL DNase for 1 hour at 37° C. Dissociated cells were filtered through a 40-μm filter, and directly stained with antibodies for phenotype characterization by fluorescence-activated cell sorting (FACS) analysis. APC-anti-CD8 and PE-Cy7-anti CD3 were used to identify T cells isolated from the B16F10 tumors. These TILs were also costained with FITC-anti-IFNγ, and PE-anti-CD107a. All antibodies were obtained from eBioscience, San Diego, Calif.

B16-F10 melanoma cells [3] = test: Example 7: therapeutic vaccination of established B16-F10 melanoma
Description: To assess PLG vaccine efficacy in the therapeutic setting, C57/BL6J mice were challenged with a subcutaneous injection of 5×10^5 B16-F10 melanoma cells (ATCC, Manassas, N.J.) in the back of the neck. At day 9 after tumor challenge PLG vaccines loaded with 3000 ng GM-CSF in combination with 100 μg of CpG-ODN, MPLA or P(I:C), and tumor lysates were implanted subcutaneously into the lower left flank of C57BL/6J mice. A subset of mice were vaccinated again 10 days after the initial vaccination (Days 19 and 23).
Mice challenged with 5×10^5B16-F10 melanoma cells were subsequently vaccinated at days 9 and 19, after tumors were established.

[4] = In vitro release / retention of GM-CSF, cytokines and TLR agonists from PLG scaffolds; type: physicochemical; conditions: for incorporated cytokine released from scaffolds: by day 4, in vitro; for daily release of protein: over the next 23 days after day 4
Description: To determine the incorporation efficiency of CpG-ODN incorporation, PLG scaffolds were prepared with 50 ug of CpG-ODN and digested in 1 ml of chloroform (Sigma Aldrich, and washed with 2 mls of aqueous buffer. The aqueous phase was isolated and the amount of CpG-ODN incorporated was determined by absorbance readings (260/280 and 260/230 ratios calculated at 0.2 mm pathlength) using a Nanodrop instrument, ND1000 (Nanodrop technologies, Wilmington, Del.). Similarly, to determine CpG-ODN release kinetics CpG-ODN loaded scaffolds were placed in 1 ml of Phosphate Buffer Solution (PBS) in an incubator (37° C.). At various timepoints, the PBS release media was collected and replaced with fresh media. The total amount of CpG-ODN incorporated into PLG scaffolds and released into PBS over time was analyzed and recorded.

[5] = tested on: bone marrow derived dendritic cells; test: Example 8: transwell chemotaxis and chemokinesis of bone marrow derived DCs; type: cell-based, C57BL/6 mice; conditions: 12 h; for DC chemotaxis, migration higher than control condition: 500 ng/ml in bottom wells; for DC chemokinesis, increase in number of migrated cells: homogenous cytokine 500 ng/ml
Description: Primary bone-marrow-derived dendritic cells (BMDCs) were flushed from the femurs of C57BL/6 mice and cultured in 100-mm bacteriological petri dishes (Falcon number 1029/Becton Dickinson). Cell culture medium RPMI-1640 (R10) (Sigma) was supplemented with 1% Penicillin-Streptomycin (Invitrogen), 2 mM 1-Glutamine (Invitrogen), 50 μM 2-mercaptoethanol (Sigma) and 10% heat-inactivated fetal bovine serum (FBS, Invitrogen). At day 0, bone marrow leukocytes were seeded at 2×10^6 cells per 100-mm dish in 10 ml R10 medium containing 20 ng/nil granulocyte-macrophage colony-stimulating factor (GM-CSF) (Peprotech). At day 3, another 10 ml R10 medium containing 20 ng/mL GM-CSF was added. to the plates. At days 6 and 8, half of the culture supernatant was collected and centrifuged, the cell pellet was resuspended in 10 ml fresh R10 containing 20 ng/mL GM-CSF, and placed back into the original plate. The non-adherent cell population in the culture supernatant was used between days 8 and 12 for all the experiments.
Transwell migration studies were performed by plating bone marrow derived dendritic cells in the top well of 6.5 mm transwell dishes (Costar, Cambridge, Mass.) with a pore size of 5 μm. The chemotactic effects of GM-CSF, FL (Flt3), and CCL20 on the migration of BMDCs was assessed by placing 500 ng/ml of recombinant murine GM-CSF, FL or CCL20 (Peprotech, Rocky Hill, N.J.) in the bottom wells and 3×10^5 DCs in the top wells. For chemokinesis studies, the concentration of cytokine in each compartment was equal at 500 ng/ml and 3×10^5 DCs were added to the top wells. The number of cells that migrated from the top well to the bottom well through the porous membrane was counted at the end of 12 h to quantify migration. Cells that had migrated to the bottom well were collected by treatment with 0.25% trypsin-0.03% ethylenediaminetetraacetic acid (EDTA, Invitrogen) and counted with a Z2 coulter counter (Beckman Coulter, Inc).

dendritic cells [6] = test: Example 8: DC recruitment and activation in cytokine loaded PLG matrices (FACS, day 7); type: in vivo, C57BL/6J mice; conditions: for DC recruitment relative to blank PLG matrices: day 7
Description: To analyze DC recruitment by FACS analysis, scaffolds were excised and the ingrown tissue was digested into single cell suspensions using a collagenase solution (Worthingtion, 250 U/ml) that was agitated at 37° C. for 45 minutes. The cell suspensions were then poured through a 40 μm cell strainer to isolate cells from scaffold particles and the cells were pelleted and washed with cold PBS and counted using a Z2 coulter counter (Beckman Coulter). To assess, DC infiltration and activation, subsets of the total cell population isolated from PLG matrices were then stained with primary antibodies (BD Pharmingen, San Diego, Calif.) conjugated to fluorescent markers to allow for analysis by flow cytometry. APC-conjugated CD11c (dendritic cell marker), FITC-conjugated MHCII and PE-conjugated CD86 (B7, costimulatory molecule) stains were conducted for DC recruitment and activation analysis. To delineate the presence of the plasmacytoid DC subset, cells were also stained with APC-conjugated CD11c and PE-conjugated PDCA-1 (plasmacytoid DC marker). Cells were gated according to single positive FITC, APC and PE stainings using isotype controls. The percentage of cells staining positive for each surface antigen was recorded.

IL-12p70 and IFN-γ = conditions: tumor lysate and CpG-ODN
Description: To determine the in vivo IL-12p70 and IFN-γ concentration at the matrix implant site, adjacent tissue was excised and digested with tissue protein extraction reagent at Day 10 after implantation (Pierce). After centrifugation, the concentrations of IL-12 and IFN-γ, in the supernatant were then analyzed with ELISA (R&D systems), according to the manufacturer's instructions. To determine the generation of TRP-2-specific cytotoxic T lymphocytes, single cell suspensions were prepared at Day 10 from the spleens of mice immunized with PLG vaccines. These cells were initially stained with PE-H-2Kb/TRP2 pentamers (Sigma Aldrich), and subsequently stained with FITC-anti-CD8 and PE-CY7 CD3 mAb (mAb (BD Pharmingen, San Diego) before being analyzed using flow cytometry.

[7] = tested on: TRP-2-specific cytotoxic T lymphocytes; test: Example 8: TRP-2-specific cytotoxic T lymphocytes in spleens (Day 10); parameters: species or system C57BL/6J mice; conditions: mouse, in vivo
B16-F10 melanoma cells [8] = test: Example 8: therapeutic vaccination, B16-F10 melanoma; type: in vivo, C57BL/6J mice; conditions: vaccinated three days after tumor challenge
Description: PLG scaffolds containing B16-F10 melanoma tumor lysates, 100 μg CpG-ODN in combination with 3 μg GM-CSF, Flt3L or CCL20 were implanted subcutaneously into the lower left flank of C57BL/6J mice to act as cancer vaccines. To assess PLG vaccine efficacy in the therapeutic setting, C57/BL6J mice were challenged with a subcutaneous injection of 5×10^5 B16-F10 melanoma cells (ATCC, Manassas, N.J.) in the back of the neck, and 3 days after tumor challenge PLG vaccines were implanted subcutaneously into the lower left flank. Animals were monitored for the onset of tumor growth (approximately 1 mm^3) and sacrificed for humane reasons when tumors grew to 20-25 mm (longest diameter).

| Molecule | CD8(+) DCs at implant site, higher than controls (dendritic cells [1]) | CD11c(+) cells positive for MHCII(+) and CD86(+), of total cells recruited (dendritic cells [1]) [%] | enhancement of total number of recruited DCs compared to GM-CSF delivery alone (dendritic cells [1]) [fold] | increase in total number of activated DCs relative to control matrices (dendritic cells [1]) | effect on IFN-α concentration at vaccine site (IL-12p70) | survival rate (B16-F10 melanoma cells [2]) [%] | increase in IFNγ(+), CD107a(+) TILs in comparison to controls (B16-F10 tumors) [fold] | complete tumor regression, fraction of vaccinated animals (B16-F10 melanoma cells [3]; mouse, in vivo) | incorporated cytokine released from scaffolds [4] [%] | daily release of protein [4] | DC chemotaxis, migration higher than control condition [5] | DC chemokinesis, increase in number of migrated cells [5] | DC recruitment relative to blank PLG matrices (dendritic cells [6]) [fold] | resident CD11c(+)PDCA-1(+) pDCs (dendritic cells [6]; in combination with CpG-ODN) | increase in local concentration of IFN-γ over control scaffolds (IL-12p70 and IFN-γ) | increase in local concentration of IL-12 over control scaffolds (IL-12p70 and IFN-γ) [fold] | long-term survival rate (B16-F10 melanoma cells [8]) [%] | other results |
| --- | --- | --- | --- | --- | --- | --- | --- | --- | --- | --- | --- | --- | --- | --- | --- | --- | --- | --- |
| monophosphoryl lipid A [MPLA] | approximately 5 fold | ~19 | 1.9 | approximately 15 fold | no effect | 80 | ~1.4 | did not cause tumors to completely regress |  |  |  |  |  |  |  |  |  | IL-12 concentration lower than CpG-ODN and P(I:C) (IL-12p70): 2 fold; higher levels of TNF-α (IL-12p70): 4 fold; increase in mean survival time over controls (B16-F10 melanoma cells [3]; vaccinated at days 9 and 19): ~1.5 fold |
| polyinosinic:polycytidylic acid [P(I:C)] | approximately 5 fold | ~28 | 2.2 | ~20 fold | elevated levels | 70 | ~3.1 | over a third |  |  |  |  |  |  |  |  |  | size of tumors that completely regressed / were eradicated (B16-F10 melanoma cells [3]; mouse, in vivo): 35 mm^2; long term survival of mice (B16-F10 melanoma cells [3]; vaccinated at days 9 and 19): 33% |
| B1 |  |  |  |  |  |  |  |  | ~36 | approximately 0.9% | no effect | no effect | 2.5 | over 160,000 | 13 fold | 8 | 75 | pDCs of total cells resident in scaffolds (dendritic cells [6]; in combination with CpG-ODN): approximately 22%; Trp2 specific CTLs in spleens, higher than control vaccines [7]: approximately 5 fold |
| B2 |  |  |  |  |  |  |  |  | ~26 | approximately 0.9% | no effect | no effect | 2.5 | approximately 110,000 | no effect | 2 | 62 |  |
